The values below come from patent US11844755B2, “Compounds and their use as therapeutically active substances in the treatment and/or reducing signs or symptoms of diseases involving the retinal pigment epithelium” (ENDOGENA THERAPEUTICS, INC., priority 2020, dated 2023).

Assay [1] deals with iPSC-fRPE cells. Kind of assay: RPE cell proliferation (Hoechst 33342 live cell number). The note with it: test compound 5 μM in 0.1% DMSO, fixed at Day 5, Hoechst 33342 cell number, relative to plate internal DMSO controls (control = 1); for fold induction at 5 µM: Homo sapiens, RPE, 120 h, read-out: Relative Growth. It counts as cell-based, human. How it is done:
(§1) Induced pluripotent stem cell-derived fetal RPE (iPSC-fRPE) cells acquired from the University of California, Santa Barbara, were generated from human fetal RPE cells that were isolated and reprogramed to iPSC, then differentiated and sorted for cellular markers to collect RPE progenitors. Vials were transported frozen on dry ice and stored in −80° C.
(§2) For the phenotypic screens, iPSC-fRPE cells were thawed and cultured in Matrigel-coated flasks with N1VA media containing 1XMEM solution supplemented with 2.2 g/L Sodium Bicarbonate, 0.25 mg/ml Taurine, 0.02 ug/ml Hydrocortisone, 0.013 ug/ml Triiodo Thyronine, 0.1 ug/ml Lipoic acid, 1% MEM Non-Essential Amino Acids, 1% Penicilin/Streptomycin, 2% Neurocult SM1 supplement and 1% N1 supplement. For the initial cultures, Thiazovivin was added to the media at 2 μM for the first 24 hr of incubation, after which the media was replaced with fresh N1VA media for additional three-day incubation at 37° C. with 5% CO2.
(§3) iPSC-fRPE cells were plated with N1VA media at a density of 10,000 cells per well in Matrigel-coated 96-well plates and cultured for 24 h prior to the treatment with test compounds at a final concentration of 5 μM in 0.1% DMSO. Internal controls for each test plate were (a) 0.1% DMSO as a negative control and (b) 0.1% DMSO+10 ng/ml human recombinant bFGF (STEMCELL) as a positive control.
To assess proliferation of RPE cells, a replicate of compound-treated RPE cells were fixed at Day 5 and stained with Hoechst 33342 to determine live cell number with fluorescent microscopy. Cell numbers are reported relative to plate internal DMSO controls.

The subject of assay [2] is iPSC-fRPE cells. Kind of assay: RPE pigmentation screen (light absorbance at 510 nm). The note with it: test compound 5 μM in 0.1% DMSO, 32 days, relative to plate internal DMSO controls (control = 1); for fold induction at 5 µM: Homo sapiens, 768 h. The class given is cell-based, human. The protocol:
as §1, §2, §3
To identify compounds that promote RPE pigmentation, cells were maintained for a period of 32 days and treated with medium containing the test or control compounds according to the media exchange regimen (FIG. 1). The degree of pigmentation was quantified by measuring the light absorbance at 510 nm with Cytation5 imaging reader (BIOTEK). Pigmentation values are finally reported relative to plate internal DMSO controls.

Turning to `Fc1cc(F)c2c(c1)CC(c1nc3ccc(-c4cnco4)cc3[nH]1)CO2` (racemic) [Compound 6, 2-(6,8-difluoro-3,4-dihydro-2H-1-benzopyran-3-yl)-6-(1,3-oxazol-5-yl)-1H-1,3-benzodiazole], the fold induction at 5 µM in the assay on iPSC-fRPE cells [1] is 1.42; with iPSC-fRPE cells [2] it was 2.3.

Turning to `Clc1ccc2c(c1)CC(c1nc3ccc(-c4cnco4)cc3[nH]1)CO2` (racemic) [Compound 5, 2-(6-chloro-3,4-dihydro-2H-1-benzopyran-3-yl)-6-(1,3-oxazol-5-yl)-1H-1,3-benzodiazole], the fold induction at 5 µM is 1.52 with iPSC-fRPE cells [1] and 1.04 in the assay on iPSC-fRPE cells [2].

Turning to `Fc1c(-c2cnco2)ccc2nc(C3COc4ccccc4C3)[nH]c12` (racemic) [Compound 9, 2-(3,4-dihydro-2H-1-benzopyran-3-yl)-4-fluoro-5-(1,3-oxazol-5-yl)-1H-1,3-benzodiazole], the figures for the fold induction at 5 µM in the assay with iPSC-fRPE cells [1] and in the assay on iPSC-fRPE cells [2] were 1.13 and 4.27, respectively.

With `Fc1ccc2c(c1)OCC(c1nc3ccc(-c4cnco4)cc3[nH]1)C2` (racemic) [Compound 4, 2-(7-fluoro-3,4-dihydro-2H-1-benzopyran-3-yl)-6-(1,3-oxazol-5-yl)-1H-1,3-benzodiazole], the fold induction at 5 µM in the assay with iPSC-fRPE cells [1] was determined as 1.78; in the assay on iPSC-fRPE cells [2] it was 5.08.

On to `c1ccc2c(c1)CC(c1nc3ccc(-c4cnco4)cc3[nH]1)O2` (racemic) [Compound 3, 2-(2,3-dihydro-1-benzofuran-2-yl)-6-(1,3-oxazol-5-yl)-1H-1,3-benzodiazole], for which the values for the fold induction at 5 µM in the assay with iPSC-fRPE cells [1] and in the assay on iPSC-fRPE cells [2] were 1.36 and 2.77, respectively.

On to `c1ccc2c(c1)C[C@@H](c1nc3ccc(-c4cnco4)cc3[nH]1)CO2` [Compound 2, (S)-5-(2-(chroman-3-yl)-1H-benzo[d]imidazol-6-yl)oxazole], for which the fold induction at 5 µM turned out to be 1.25 in the assay on iPSC-fRPE cells [1] and 1.59 in the assay on iPSC-fRPE cells [2].

As to “2-(chroman-3-yl)-6-(oxazol-5-yl)benzo[d]oxazole [Compound 10]”, in the assay with iPSC-fRPE cells [1], the “Relative Growth” value stood at 1.12. Besides, in the assay on iPSC-fRPE cells [2], the “Relative Pigmentation” value is on record as 1.71.

For `c1ccc2c(c1)C[C@H](c1nc3ccc(-c4cnco4)cc3[nH]1)CO2` [Compound 1, (R)-5-(2-(chroman-3-yl)-1H-benzo[d]imidazol-6-yl)oxazole], the fold induction at 5 µM amounted to 1.7 with iPSC-fRPE cells [1] and 4.98 in the assay with iPSC-fRPE cells [2].

For the compound `c1ccc2c(c1)CC(c1nc3ccc(-c4cnco4)cc3[nH]1)C2` [Compound 7, 2-(2,3-dihydro-1H-inden-2-yl)-6-(1,3-oxazolyl)-1H-1,3-benzodiazole], the fold induction at 5 µM with iPSC-fRPE cells [1] was found to be 1.34; with iPSC-fRPE cells [2], 2.36.

For the compound “2-(chroman-3-yl)-6-(oxazol-5-yl)benzo[d]oxazole [Compound 11]”, the “Relative Growth” value in the assay with iPSC-fRPE cells [1] is given as 1.42. Besides, the “Relative Pigmentation” value in the assay with iPSC-fRPE cells [2] is 6.24.

For the compound `Fc1cc(-c2cnco2)cc2[nH]c(C3COc4ccccc4C3)nc12` (racemic) [Compound 8, 2-(3,4-dihydro-2H-1-benzopyran-3-yl)-7-fluoro-5-(1,3-oxazool-5-yl)-1H-1,3-benzodiazole], the fold induction at 5 µM in the assay on iPSC-fRPE cells [1] was determined as 1.49; in the assay on iPSC-fRPE cells [2], 2.75.
